This note sets out measurements from PMC11992225, “Antibacterial compounds against non-growing and intracellular bacteria” (npj Antimicrobials and Resistance, 2025).

One assay relates to E. coli CFT073 (UPEC). The assay can be described thus: MIC, standard microdilution assay, growing UPEC. The assay is classed as cell-based, Escherichia coli. As to conditions: for MIC (μM) CA-MHB +PAβN: CA-MHB with 10 μg/ml efflux pump inhibitor PaβN. In a few lines: (§1)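 Each strain was exposed to serially diluted compound in broth, in triplicate. The media were TSB for Shigella; CA-MHB at pH 7.4 (HEPES 40 mM) for S. aureus, P. aeruginosa and UPEC; and, for UPEC only, low-pH LPM (pH 5.5, 30 mM MES).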

In assay [1] the test system is non-growing P. aeruginosa DSM1117. The assay can be described thus: Dilution-regrowth assay (OD600, start-growth-time) on stationary-phase P. aeruginosa. The assay is classed as cell-based, Pseudomonas aeruginosa. As to conditions: Pseudomonas aeruginosa, DSM1117; P. aeruginosa; regrowth delay of non-growing bacteria, 1:4 CA-MHB pH 7.4, 24 h treatment, OD600 8 h after dilution; read-out: EC50. The method, then: To determine the spectrum of activity of the compounds that were effective against non-growing UPEC, we further assessed their efficacy against the well-characterized Gram-negative and Gram-positive reference strains P. aeruginosa DSM1117 and S. aureus DSM2569, respectively. The cultures were grown and treated for 24 h in 1:4 CA-MHB (pH 7.4). […].
For better characterization of the compounds causing the strongest regrowth delay, we performed the regrowth step of the dilution-regrowth experiments on a plate reader, measuring the OD600 at 20-min intervals for over 20 h instead of using an endpoint measurement. This approach allowed us to capture the time when cultures reached a threshold optical density (start-growth-time, SGT[15]).
Overnight cultures of UPEC, P. aeruginosa and S. aureus were grown in test tubes containing 3 ml of LB broth (~16 h), then diluted 1:100 into either 1:4 diluted CA-MHB medium buffered with 40 mM HEPES (pH 7.4) or, in case of UPEC, into LPM medium[25] supplemented with 49 µM MgCl2 and buffered with 30 mM MES (pH 5.5). The cultures were incubated for 24 h in non-baffled Erlenmeyer flasks at 37 °C with shaking at 200 rpm.
For P. aeruginosa and S. aureus, dose–response analysis was conducted in 96-well plates with a 200 μl assay volume, following the procedure used for screening assay validation experiments. Aliquots of the 39 compounds active against non-growing UPEC were obtained from SelleckChem and MedChem Express. Stock solutions were prepared and stored according to the manufacturers’ instructions, then diluted in 10% DMSO before use. Cultures were incubated for 24 h in 1:4 diluted CA-MHB medium under the same conditions used for UPEC cultivation. In preliminary experiments, each compound was tested at a concentration of 20 μM in the dilution-regrowth assay with 4 technical replicates. Regrowth was monitored using a microplate reader at 37 °C with continuous shaking, and OD600 was recorded every 20 min. The time at which OD600 exceeded the threshold of 0.12 was recorded as the Start_Growth-Time.
The statistical analysis of all data, as well as EC50 and IC50 determination, was conducted using GraphPad Prism 10.2.3. Statistical significance of the drug effects was assessed using a one-way ANOVA followed by Dunnett’s test, comparing each treatment to the drug-free control. Statistical significance of the differences in chemical characteristics between the hit compounds and the Prestwick library was assessed using a Mann–Whitney test. Statistical significance was set at P ≤ 0.05. A five-parameter logistic equation was used for asymmetric sigmoidal curve fitting and for EC50 and IC50 determination. The Venn diagram in Fig. 1F was prepared using BioVenn web application. Characteristics of the chemical and physical properties of Prestwick library compounds were obtained from Supplementary Table S1 from reference. Characteristics of the hit compounds not included in the Prestwick library were retrieved from the PubChem database.

For a further assay, the system named is S. aureus DSM2569. The assay can be described thus: MIC, standard microdilution assay, growing S. aureus. The class given is cell-based, Staphylococcus aureus. The procedure, abridged:
as §1

The next assay deals with P. aeruginosa DSM1117. The assay can be described thus: MIC, standard microdilution assay, growing P. aeruginosa. The assay is classed as cell-based, Pseudomonas aeruginosa. Particulars: for MIC: Pseudomonas aeruginosa. In a few lines:
as §1

Setting [2] is: Escherichia coli, E. coli, pH 7.4, 1:4 diluted CA-MHB, read-out: MIC (μM) 1:4 CA-MHB.
The mark [3] stands for this setting: Escherichia coli, E. coli, pH 7.4, CA-MHB, read-out: MIC (μM) CA-MHB.
[4] abbreviates: Staphylococcus aureus, DSM2569, S. aureus, CA-MHB pH 7.4, read-out: MIC (μM) CA-MHB.
The mark [5] stands for this setting: DSM1117, P. aeruginosa, 1:4 diluted CA-MHB pH 7.4, read-out: MIC (μM) 1:4 CA-MHB.
Setting [6] is: DSM1117, P. aeruginosa, CA-MHB pH 7.4, read-out: MIC (μM) CA-MHB.
The mark [7] stands for this setting: Escherichia coli, E. coli, LPM pH 5.5, read-out: MIC.

In brackets after ≈: the same amount, converted by molar mass. Read-outs that look alike come from different tables or passages of the source.

For `C=C[C@]1(C)C[C@@H](OC(=O)CSC(C)(C)CNC(=O)[C@H](N)C(C)C)[C@]2(C)[C@H](C)CC[C@]3(CCC(=O)[C@H]32)[C@@H](C)[C@@H]1O` [Valnemulin], the “MIC (μM) CA-MHB +PAβN” value in the assay on E. coli CFT073 (UPEC) (E. coli, pH 7.4) was 10 µM (≈ 5.65 µg/mL). Besides, the MIC with E. coli CFT073 (UPEC) (setting [2]) is 10 µM (≈ 5.65 µg/mL); with E. coli CFT073 (UPEC) (setting [3]) it was 20 µM (≈ 11.3 µg/mL); with S. aureus DSM2569 (setting [4]), 0.125 µM (≈ 0.0706 µg/mL); with P. aeruginosa DSM1117 (setting [5]) it was over 160 µM; in the assay on P. aeruginosa DSM1117 (setting [6]) it was over 160 µM. Besides, the EC50 in assay [1] worked out at 324 nM.

As to `CO[C@H]1/C=C/O[C@@]2(C)Oc3c(C)c(O)c4c(O)c(c(/C=N/N5CCN(C6CCCC6)CC5)c(O)c4c3C2=O)NC(=O)/C(C)=C\C=C\[C@H](C)[C@H](O)[C@@H](C)[C@@H](O)[C@@H](C)[C@H](OC(C)=O)[C@@H]1C` [Rifapentine], the minimal inhibitory concentration (MIC) in the assay with E. coli CFT073 (UPEC) (setting [7]) came to 0.25 µM (≈ 0.219 µg/mL); with E. coli CFT073 (UPEC) (setting [2]), 5 µM (≈ 4.39 µg/mL); in the assay on E. coli CFT073 (UPEC) (setting [3]), 8 µM (≈ 7.02 µg/mL); with S. aureus DSM2569 (setting [4]), 0.0125 µM (≈ 0.011 µg/mL); in the assay on P. aeruginosa DSM1117 (setting [6]), 80 µM (≈ 70.2 µg/mL).

Consider `CC[C@H]1OC(=O)[C@@](C)(F)C(=O)[C@H](C)[C@@H](O[C@@H]2O[C@H](C)C[C@H](N(C)C)[C@H]2O)[C@](C)(OC)C[C@@H](C)C(=O)[C@H](C)[C@H]2N(CCCCn3cc(-c4cccc(N)c4)nn3)C(=O)O[C@]12C` [Solithromycin], for which the “MIC (μM) CA-MHB +PAβN” value in the assay with E. coli CFT073 (UPEC) (E. coli, pH 7.4) was 4 µM (≈ 3.38 µg/mL); against P. aeruginosa DSM1117 (P. aeruginosa, CA-MHB with 10 μg/ml PaβN), over 80 µM. Besides, the MIC in the assay on E. coli CFT073 (UPEC) (setting [2]) was determined as 10 µM (≈ 8.45 µg/mL); with E. coli CFT073 (UPEC) (setting [3]) it was 8 µM (≈ 6.76 µg/mL); in the assay with S. aureus DSM2569 (setting [4]), 0.05 µM (≈ 0.0423 µg/mL); with P. aeruginosa DSM1117 (setting [5]), 80 µM (≈ 67.6 µg/mL); in the assay on P. aeruginosa DSM1117 (setting [6]) it was 80 µM (≈ 67.6 µg/mL). For the same compound, the concentration for a half-maximal effect (EC50) in assay [1] was 158 nM.

Take `N[C@@H]1[C@H]2CN(c3nc4c(cc3F)c(=O)c(C(=O)O)cn4-c3ccc(F)cc3F)C[C@@H]12` [Trovafloxacin]: the minimal inhibitory concentration (MIC) against E. coli CFT073 (UPEC) (Escherichia coli, pH 5.5) turned out to be 0.0625 µM (≈ 0.026 µg/mL); in the assay on E. coli CFT073 (UPEC) (setting [3]), 0.4 µM (≈ 0.167 µg/mL); in the assay with S. aureus DSM2569 (setting [4]) it was 0.125 µM (≈ 0.052 µg/mL); in the assay on P. aeruginosa DSM1117 (setting [5]), 8 µM (≈ 3.33 µg/mL); in the assay on P. aeruginosa DSM1117 (setting [6]), 2 µM (≈ 0.833 µg/mL). For the same compound, the half-maximal effective concentration (EC50) in assay [1] was determined as 1020 nM. The “increase of MIC in diluted CA-MHB versus CA-MHB” value in the assay with P. aeruginosa DSM1117 (P. aeruginosa) is “four”.

Turning to Plicamycin, the minimal inhibitory concentration (MIC) is 32 µM in the assay on E. coli CFT073 (UPEC) (E. coli, LPM pH 5.5, read-out: MIC); 160 µM with E. coli CFT073 (UPEC) (E. coli, pH 7.4, CA-MHB, read-out: MIC (μM) CA-MHB); 0.25 µM in the assay on S. aureus DSM2569 (S. aureus, CA-MHB pH 7.4, read-out: MIC (μM) CA-MHB).

As for `CCN1CCN(c2cc3c(cc2F)c(=O)c(C(=O)O)cn3C2CC2)CC1` [Enrofloxacin], the MIC in the assay on E. coli CFT073 (UPEC) (setting [7]) came out at 0.125 µM (≈ 0.0449 µg/mL); with E. coli CFT073 (UPEC) (setting [3]), 0.1 µM (≈ 0.0359 µg/mL); in the assay on S. aureus DSM2569 (setting [4]), 0.5 µM (≈ 0.18 µg/mL); with P. aeruginosa DSM1117 (setting [5]), 4 µM (≈ 1.44 µg/mL); in the assay on P. aeruginosa DSM1117 (setting [6]), 4 µM (≈ 1.44 µg/mL). For the same compound, the half-maximal effective concentration (EC50) in assay [1] was determined as 690 nM.

As to `CC[C@H]1OC(=O)C[C@@H](O)[C@H](C)[C@@H](O[C@@H]2O[C@H](C)C[C@H](N(C)C)[C@H]2O)[C@@H](CC=O)C[C@@H](C)C(=O)/C=C/[C@]2(C)O[C@H]2[C@@H]1C` [Rosamicin], the MIC with E. coli CFT073 (UPEC) (setting [2]) was 6.25 µM (≈ 3.64 µg/mL); with E. coli CFT073 (UPEC) (setting [3]), 25 µM (≈ 14.5 µg/mL); in the assay with S. aureus DSM2569 (setting [4]), 2 µM (≈ 1.16 µg/mL); in the assay with P. aeruginosa DSM1117 (setting [5]), 100 µM (≈ 58.2 µg/mL); with P. aeruginosa DSM1117 (setting [6]), over 100 µM. Besides, the EC50 in assay [1] came to 2300 nM.

As to `CS[C@H]1SC[C@H]2C(=O)N(C)[C@@H](C(C)C)C(=O)OC[C@@H](NC(=O)c3cnc4ccccc4n3)C(=O)N[C@@H](C)C(=O)N(C)[C@@H]1C(=O)N(C)[C@@H](C(C)C)C(=O)OC[C@@H](NC(=O)c1cnc3ccccc3n1)C(=O)N[C@@H](C)C(=O)N2C` [Echinomycin], the “MIC (μM) CA-MHB +PAβN” value against E. coli CFT073 (UPEC) (E. coli, pH 7.4) was found to be 40 µM (≈ 44.1 µg/mL). The minimum inhibitory concentration (MIC) in the assay on E. coli CFT073 (UPEC) (Escherichia coli, pH 5.5) was 4 µM (≈ 4.41 µg/mL); in the assay on E. coli CFT073 (UPEC) (Escherichia coli, pH 7.4, read-out: MIC (μM) 1:4 CA-MHB) it was 40 µM (≈ 44.1 µg/mL); with E. coli CFT073 (UPEC) (Escherichia coli, pH 7.4, read-out: MIC (μM) CA-MHB) it was 20 µM (≈ 22 µg/mL); in the assay with S. aureus DSM2569 (Staphylococcus aureus, DSM2569, pH 7.4, read-out: MIC (μM) CA-MHB), 2 µM (≈ 2.2 µg/mL); in the assay with P. aeruginosa DSM1117 (DSM1117, pH 7.4, read-out: MIC (μM) CA-MHB), over 80 µM.
